Experimental data: patent US10311582B2, “Image processing apparatus and method for evaluating objects in an image” (Sony Corporation, priority 2010, dated 2019)

Test system: cultured cardiomyocytes
Test: Pulsations of cultured cardiomyocytes before and after drug administration, by motion detection on moving images (drug evaluation apparatus)
Assay type: cell-based
Conditions: for interval / timing of the pulsations (peak interval, rhythm of the pulsations): before vs after drug administration (after a predetermined time elapses), predetermined part of the observation region
Description: FIG. 24 is a block diagram illustrating a main configuration example of a drug evaluation apparatus. The drug evaluation apparatus 1300 illustrated in FIG. 24 is an apparatus that evaluates the impact (effects, side effects, and the like) of a drug using the motions of the cultured cardiomyocytes 500 to which the drug is administered.
The imaging unit 1101 images the cultured cardiomyocytes 500 before drug administration and after drug administration.
More specifically, the evaluation index data generating unit 1303 performs, for example, between frame images of the evaluation object image data which are the moving images of the cultured cardiomyocytes 500, motion detection (generation of motion vectors) of the cultured cardiomyocytes 500 for each of the blocks which are partial regions into which the entire region of the frame image is divided. That is, the evaluation index data generating unit 1303 performs the motion detection of each of the blocks for a predetermined duration (for a predetermined number of frames). This duration may be a time of the moving images imaged by the imaging unit 1101 or may be shorter than the time.
The evaluation index data generating unit 1303 further obtains a motion amount (the length of the motion vector) of each of the generated motion vectors. That is, the evaluation index data generating unit 1303 generates the motion amounts of each of the frames of each of the blocks for a predetermined duration.
When the motion amounts of the frames of a certain block obtained by the evaluation index data generating unit 1303 are arranged in time series, for example, the graph shown in FIG. 25 is obtained. FIG. 25 is a diagram showing a form of a change in the motion amount of a certain block with respect to time obtained by the evaluation index data generating unit 1303, that is, an example of a form of the pulsations of cells.
In the graph of FIG. 25, the horizontal axis represents the elapsed time (the number of frames), and the vertical axis represents the motion amount (pixels/frame). A curve 1311 (before) represents the pulsations of the cultured cardiomyocytes 500 before drug administration, and a curve 1312 (after) represents the pulsations of the cultured cardiomyocytes 500 after drug administration. In addition, in the graph of FIG. 25, a waveform of a single pulsation (a contraction and a relaxation) is shown.
The pulsations of cardiomyocytes include contractions and relaxations, and in the curve 1311 and the curve 1312, the crest formed on the left means a “contraction” operation, and the crest formed on the right means a “relaxation” operation. A point P1-1 represents the peak of the contraction of the curve 1311 (before), and a point P1-2 represents the peak of the relaxation of the curve 1311 (before). A point P2-1 represents the peak of the contraction of the curve […] (after), and a point P2-2 represents the peak of the relaxation of the curve 1312 (after).
FIG. 31 is a diagram showing an example of forms of pulsations before and after drug administration. All the 8 graphs shown in FIG. 31 are observation results of forms (changes in the motion amount absolute value with respect to time) of pulsations of a predetermined part in an observation region of the cultured cardiomyocytes 500. The horizontal axis represents the time (sec), and the vertical axis represents the motion amount absolute value (pixcel/frame) between frames. That is, the amplitudes shown in each of the graphs represents the pulsations of the cultured cardiomyocytes 500.
The graphs on the left of FIG. 31 represent forms of the pulsations before drug administration, and the graphs on the right represent forms of the pulsations after drug administration (after a predetermined time elapses after the administration).
In addition, FIG. 32 is a diagram showing an example of forms of variations of the pulsations before and after drug administration. […]

[1] = FIG. 31, before vs after drug administration
[2] = FIG. 32, overlapped pulsations after drug administration

Row | motion amount absolute value at the peaks [1] | interval / timing of the pulsations (peak interval, rhythm of the pulsations) (FIG. 31) | variations of the height of the peak in the waveform of the contraction [2] | variations of the pulsations (overlapped waveforms of repeated pulsations) (FIG. 32, before vs after drug administration) | waveform of the relaxation (the width of the pulsation) [1] | Compound | variations of the waveform of the relaxation (magnitude, time and number of appearance of the peak, width (QT elongation)) [2]
1 | become unstable (have variations) | become unstable (have variations) | has significant variations |  |  | CC1(C)[C@@H](O)CC[C@]2(C)[C@H]3C(=O)C=C4[C@@H]5C[C@@](C)(C(=O)O)CC[C@]5(C)CC[C@@]4(C)[C@]3(C)CC[C@@H]12 [18-β-glycyrrhetinic acid] | 
2 |  | does not have a significant impact |  | do not have significant variations |  | CC(=O)Oc1ccccc1C(=O)O [aspirin, acetylsalicylic acid] | 

Row | Compound | motion amount absolute value at the peaks [1] | interval / timing of the pulsations (peak interval, rhythm of the pulsations) (FIG. 31) | variations of the height of the peak in the waveform of the contraction [2] | variations of the pulsations (overlapped waveforms of repeated pulsations) (FIG. 32, before vs after drug administration) | waveform of the relaxation (the width of the pulsation) [1] | variations of the waveform of the relaxation (magnitude, time and number of appearance of the peak, width (QT elongation)) [2]
3 | CC(C)NCC(O)c1ccc(NS(C)(=O)=O)cc1 (racemic) [DL-sotalol] | becomes unstable (has variations) | the timing of the pulsation becomes unstable | also has significant variations |  | changes (becomes unstable) | has significant variations
